# Source: EP0233031B1, “Methylthioribose analogues, their preparation and use as medicinal agents and biocides” (STATE OF OREGON BY AND THROUGH OREGON STATE BOARD OF HIGHER …, priority 1986, dated 1987)
# Legend:
# Type in all cases: cell-based
# [1] = tested on: Ochromonas malhamensis (ATCC #11532); assay: Toxicity to Ochromonas malhamensis culture (cell number by hemacytometer); details: Poterioochromonas malhamensis, ATCC11532; 48 hours of incubation; thioglycolate broth; 4x10^4 cells per ml; read-out: ID50 (the source's name)
# Description: • a. Procedure. 2 ml cultures of O. malhamensis were set up at a cell density of 4x10⁴ per ml. The culture medium used was thioglycolate broth and incubation took place at ambient temperature near a south-facing window (these organisms are photosynthetic). ETR was added at the appropriate dilution at the beginning of the experiment. Cell number was determined using a hemacytometer. The data (shown below) were obtained after 48 hours of incubation. • b. Results. [formula]
# [2] = tested on: Giardia lamblia (Portland 1 strain); assay: Inhibition of Giardia lamblia culture (cell number by hemacytometer)
# Description: • a. Procedure. Giardia lamblia was cultured in Diamond's TP-S-1 medium supplemented with 10% heat-inactivated calf serum and antibiotics (penicillin and streptomycin). The antibiotics were added to prevent contamination by bacteria. Tube cultures containing 7 mls of medium were seeded with 5 x 10⁴ organisms per ml and incubated horizontally at 37°C for 48 hrs. ETR was added at the beginning of the experiment. Cell number was determined with the aid of a hemacytometer. • b. Results. [formula]
# Candida albicans [3] = assay: Growth inhibition of Candida albicans in LB broth (optical density / visible growth); details: for OD550 at 24 Hrs / OD550 24 hrs / OD550 7 days: 10^4 cells; for OD550 at 24 Hrs: LB broth
# Description: In the following examples, an MTR kinase-dependent microorganism is treated in vitro with compounds of this invention. In the following examples, LB is a growth medium (Luria-Bertani) containing, per liter, 10 grams Bacto-tryptone, 5 grams Bacto-yeast extract and 10 grams NaCl. OD₅₅₀ is a measure of the optical density of the suspension at the indicated time. Low optical density indicates a low cell concentration in the suspension and thus that compounds were effective to inhibit the growth of the microorganisms.
# Candida albicans [4] = assay: Colony count of Candida albicans after incubation with ETR (cytocidal vs cytostatic); details: for Total # Organisms: colonies x dilution factor 200; for Colonies: 10^3 orgs, 100 l of 1:10 dilution plated
# Excerpt: In this example, samples containing a known number of microorganisms were colonized without ETR and in the presence of ETR. In the instances where growth occurred, one colony formed for each microorganism.
# mouse marrow = assay: CFU-GM assay, toxicity toward mouse marrow
# Excerpt: In the following examples, human bone marrow and mouse marrow cells were subjected to ethylthioribose. In each case, a preparation of immature blood cells from bone marrow were conventionally stimulated to mature in a gel matrix. Immature human granulocytic precursor (CFU-GM) cells formed a colony in the matrix and the number of cells in the colony was counted. Such tests are believed to be a good measure of the toxicity of the subject compounds to humans.
# Plasmodium falciparum = Plasmodium falciparum in vitro erythrocyte culture, Giemsa-stained thin smears
# Description: • a. Procedure. Parasitized erythrocytes from a stock four-day-old culture at approximately 10% infection were mixed with washed clean erythrocytes to give a final parasitemia of approximately 1%. Using 1.2 cm plastic Petri dishes duplicate 1 ml cultures were initiated with drug dilutions in complete RPMI-1640, containing 0.1 ml of erythrocytes and 50 ug of gentamycin/ml. The cultures were supplemented with RPMI-1640 (25 mM HEPES), 0.24% sodium bicarbonate and 10% human serum (Type A⁻). All cultures were gassed with 90% nitrogen, 5% carbon dioxide and 5% oxygen prior to incubation at 37°C. Parasite growth was assessed by microscopic evaluation of Giemsa-stained thin-smears. • b. Results. [formula]
structure (smiles),measurement,setting,value
"CCSC[C@H]1OC(O)[C@H](O)[C@@H]1O (some centres unmarked) [ETR, 5-ethylthio-5-deoxyribose]",IC50,[1],20 µM
same,IC50,"[2]; Giardia duodenalis, 48 hrs at 37°C, 5 x 10^4 organisms per ml, read-out: ID50 (the source's name)",~450 µM
same,"cell death and lack of ""swimming""",[2]; concentrations ranging from 0.62mM to 5mM,"significant cell death and lack of ""swimming"""
same,OD550 at 24 Hrs,Candida albicans [3]; ETR 0.092mM,0.409
same,OD550 at 24 Hrs,Candida albicans [3]; ETR 0.23mM,0.355
same,OD550 at 24 Hrs,Candida albicans [3]; ETR 0.46mM,0.357
same,OD550 at 24 Hrs,Candida albicans [3]; ETR 0.9mM,0.120
same,OD550 at 24 Hrs,Candida albicans [3]; ETR 2.3mM,0.0
same,OD550 at 24 Hrs,Candida albicans [3]; ETR 4.6mM,0.0
same,OD550 at 24 Hrs,Candida albicans [3]; ETR 9.2mM,0.0
same,growth of Candida albicans,Candida albicans [3]; conclusion of Examples 17 and 18,clearly inhibits the growth
same,Total # Organisms,Candida albicans [4]; 3 hrs (+ETR) 4mM,400
same,Colonies,Candida albicans [4]; 3 hrs incubation with ETR 0.5ml (4mM),2
same,Total # Organisms,Candida albicans [4]; 5 hrs (w/ETR) 4mM,0
same,Colonies,Candida albicans [4]; 5 hrs incubation with ETR 1.5ml (4mM),0
same,cytocidal as opposed to cytostatic,Candida albicans [4]; conclusion of Example 19,cytocidal
same,colonies formed in the presence of ETR,Candida albicans [4]; summary statement of Example 19,"less than 1,000 colonies"
same,CFU-GM,mouse marrow; ETR 100 (1:1),34 --
same,CFU-GM,"mouse marrow; ETR 100 (1:1k), duplicate counts","36,37"
same,CFU-GM,"mouse marrow; ETR 100 (1:2), duplicate counts","37,33"
same,CFU-GM,"mouse marrow; ETR 100 (1:4), duplicate counts","32,34"
same,CFU-GM,"mouse marrow; ETR 100 (1:10), duplicate counts","36,34"
same,CFU-GM,"mouse marrow; ETR 100 (1:10k), duplicate counts","35,32"
same,CFU-GM,"mouse marrow; ETR 100 (1:20k), duplicate counts","32,34"
same,CFU-GM,"mouse marrow; ETR 100 (1:40), duplicate counts","33,35"
same,CFU-GM,"mouse marrow; ETR 100 (1:50), duplicate counts","37,36"
same,CFU-GM,mouse marrow; ETR 100 (1:100),39 --
same,CFU-GM,"mouse marrow; ETR 100 (1:100k), duplicate counts","33,35"
same,CFU-GM,"mouse marrow; ETR 100 (stock), duplicate counts","35,36"
same,parasitemia,"Plasmodium falciparum; 24 hours, 1mM ETR",remained at or below the level of the initial inoculum
same,parasite growth,"Plasmodium falciparum; 24 hours, 1 mM ETR (lowest concentration tested)",a small increase in growth was noted but the parasites appeared abnormal
same,parasitemia,"Plasmodium falciparum; 24 hours, 5mM ETR",remained at or below the level of the initial inoculum
same,parasitemia,"Plasmodium falciparum; 48 hours, 1 mM ETR (lowest concentration tested), initial seeding <1.0%",less than 0.1%
same,infection,"Plasmodium falciparum; 72 hours, 1 mM ETR (lowest concentration tested)","less than 1 parasite per 10,000 red cells"
same,culture infection,"Plasmodium falciparum; 72 hours, all drug-treated cultures",completely negative
same,reappearance of parasitemia,Plasmodium falciparum; after 5 days (the last 3 days without drug),did not reappear
same,inhibition of P. falciparum in vitro,Plasmodium falciparum; overall conclusion,inhibitory
"OC1O[C@H](CCl)[C@@H](O)[C@H]1O (some centres unmarked) [5-Chloro-5-Deoxyribose, 5-deoxy-5-chlororibose]",OD550 24 hrs,Candida albicans [3]; 0.2 of 10mM stock + LB 1.8,0.0
same,OD550 7 days,Candida albicans [3]; 0.2 of 10mM stock + LB 1.8,0.0
same,OD550 24 hrs,Candida albicans [3]; 0.4 of 10mM stock + LB 1.6,0.0
same,OD550 7 days,Candida albicans [3]; 0.4 of 10mM stock + LB 1.6,0.0
same,OD550 24 hrs,Candida albicans [3]; 0.8 of 10mM stock + LB 1.2,0.0
same,OD550 7 days,Candida albicans [3]; 0.8 of 10mM stock + LB 1.2,0.0
same,killing of Candida albicans,Candida albicans [3]; conclusion of Example 20,effective to kill
